Laboratory results reported in patent US4061779A, “Naphthalene derivatives having anti-inflammatory activity” (Beecham Group Limited, priority 1973, dated 1977).
Where two headings read alike, the source gives them in different places. Blank lines part the entries; values can stand above or below the molecule they belong to.

Key:
oestrogenicity [1] = test: Allen-Doisy Test, oestrogenic activity (rat); type: in vivo
Description: (§1) Using a conventional Allen-Doisy Test, the Oestrogenic activity of certain compounds of the invention was ascertained. The anti-inflammatory activity of certain compounds of the invention was ascertained by using a standard Rat Paw Carrageenin Test.

Rat Paw Carrageenin = test: standard Rat Paw Carrageenin Test, anti-inflammatory activity; type: in vivo
Description: as §1

oestrogenicity [2] = test: Allen-Doisy Test, oestrogenic activity (mouse); type: in vivo
Description: as §1

[3] = tested on: Carrageenin Induced Oedema; test: Carrageenin Induced Oedema in Rats; type: in vivo, rat
Description: a. Carrageenin Induced Oedema in Rats

UV Induced Erythrema = UV Induced Erythrema in Guinea Pigs; type: in vivo, guinea pig; details: Cavia porcellus, po
Description: b. UV Induced Erythrema in Guinea Pigs

[4] = tested on: Cotton Pellet Induced Granuloma; test: Cotton Pellet Induced Granuloma in Rats; type: in vivo, rat; details: 50 mg/kg p.o., day 0 to 5 days
Experimental: c. Cotton Pellet Induced Granuloma in Rats
Consistent activity (reducing induced granuloma by more than 30%) has been observed at 50 mg/kg p.o. dosed from day 0 to 5 days.

Adjuvant arthritis = test: Adjuvant Arthritis in Rats; type: in vivo, rat; details: 60 mg/kg p.o. daily
Experimental: d. Adjurant Arthritis in Rats
Adjuvant arthritis is reduced in rats by the daily administration of doses of 60 mg/kg p.o.

[5] = tested on: cultured mouse peritoneal macrophages; test: Macrophage Plasminogen Activator Release Test; type: cell-based; details: 1 mg/ml
Description: e. Macrophage Plasmongen Activator Release Test
On the test system of J. D. Vassalli et al., Cell, 8, 271-281 (1976), the compound […] caused 90% inhibition of the release of plasmogen activator from cultured mouse peritoneal macrophages.

[6] = tested on: Phenyl-p-quinone Induced Writhing; test: Phenyl-p-quinone Induced Writhing in Mice; type: in vivo; details: Mus musculus, po, read-out: ED50 for analgesic activity
Description: f. Phenyl-p-quinone Induced Writhing in Mice

[7] = tested on: pyresis induced by Shigella endotoxin; test: Anti-pyretic Effect in Rabbits; type: in vivo, rabbit; details: doses down to 100 mg/kg p.o.
Description: g. Anti-pyretic Effect in Rabbits

[8] = tested on: release of corticosteroids from the adrenal gland; test: Interactions with the Adrenal/Pituitary Axis; type: in vivo; details: 140 mg/kg p.o./day, five days
Description: h. Interactions with the Adrenal/Pitutary Axis

uterine weight = test: Oestrogenic Test in Rats (ovariectomised rats, uterine weight); type: in vivo, rat; details: 200 mg/kg p.o. and 600 mg/kg p.o., 4 days
Description: i. Oestrogenic Test in Rats

[9] = tested on: seminal vesicles, prostate gland or levator ani muscles; test: Anabolic/Androgenic Activity in Rats; type: in vivo, rat; details: 200 mg/kg p.o.
Description: j. Anabolic/Adrogenic Activity in Rats

endometrium = test: Gestagenic Activity in Rabbits (Clauberg test); type: in vivo, rabbit; details: 200 mg/kg p.o., 4 days
Description: k. Gestagenic Activity in Rabbits

[10] = tested on: gastric secretion / gastric damage; test: Gastric Damage in Pyloric Ligated Rats; type: in vivo; details: up to 200 mg/kg intra-duodenally, pyloric ligated rat
Description: 1. Gastric Damage in Pyloric Ligated Rats

[11] = tested on: gastric erosions or ulceration; test: Ulcerogenic Activity in Rats; type: in vivo, rat; details: 250 or 500 mg/kg p.o.
Description: m. Ulcerogenic Activity in Rats.

[12] = General statements on gastro-intestinal irritation, oestrogenicity and anti-inflammatory activity; type: in vivo
gastro intestinal tract = test: Long term toxicity tests, gastro-intestinal tolerance; type: in vivo, rat; details: 180 mg/kg p.o. for 28 days

Structure (SMILES): CCC(c1ccc2cc(OC)ccc2c1)C(C)(O)C(C)=O (centres unmarked) [3-hydroxy-3-methyl-4-(6'-methoxy-2'-naphthyl)-hexan-2-one]
Oestrogenicity, Allan-Doisy test (oestrogenicity [2]; 50 mg/kg sub.cut.): Active | Anti-inflammatory, rat carrageenan (Rat Paw Carrageenin; 100 mg/kg orally): Inactive

Structure (SMILES): COc1ccc2cc(CCC(C)=O)ccc2c1 [4-(6'-methoxy-2'-naphthyl)butan-2-one]
reduction in induced oedema volume ([3]; 5, 10, 35 and 70 mg/kg p.o.): significant reduction | ED25 ([3]; Rattus norvegicus, po, rats): 7 to 10 mg/kg | Activity in adrenalectomised rats ([3]; adrenalectomised rats): Activity is maintained | ED50 (UV Induced Erythrema): 9 to 15 mg/kg | changes in body weight or in weight of spleen, thymus, kidney, liver or adrenal glands [4]: not accompanied by marked changes | Adjuvant arthritis (Adjuvant arthritis): reduced | inhibition of the release of plasminogen activator [5]: slight inhibition | ED50 ([6]; mice): ~110 mg/kg | reduction of pyresis induced by intravenous Shigella endotoxin [7]: reduced pyresis | interference with release of corticosteroids in response to ACTH administration or to ether stress [8]: does not interfere | increase in uterine weight (uterine weight): did not result in any increase in uterine weight | increase in weight of seminal vesicles, prostate gland or levator ani muscles ([9]; 4 days, castrated young male rats): did not result in any increase | interference with androgenic/anabolic activity of concomitantly administered testosterone ([9]; testosterone 1 mg/kg s.c.): did not interfere | uterine hypertrophy or progestational changes in the endometrium (endometrium): did not result in uterine hypertrophy or progestational changes in the endometrium | overt gastric damage [10]: nor did overt gastric damage result | systemically mediated effect on the volume of gastric secretion [10]: have not been found to have a systemically mediated effect | gastric erosions, longer contact times ([11]; longer than 4 hours): in some cases to some degree of erosions | gastric erosions or ulceration ([11]; rats starved 18 hours, 1 or 4 hours after dosing): did not give rise to gastric erosions or ulceration | oestrogenic effects or gastric-irritant effects ([12]; at the therapeutic dose): not causing either oestrogenic effects or pronounced gastric-irritant effects | anti-inflammatory activity ([12]; general statement): good spectrum of anti-inflammatory activity | anti-pyretic and analgesic activity ([12]; general statement): anti-pyretic and analgesic activity | hormone like activity ([12]; general statement): free of hormone like activity | therapeutic ratio based on gastro intestinal irritancy ([12]; general statement): good therapeutic ratio | gastro intestinal tolerance (gastro intestinal tract): well tolerated

Structure (SMILES): COc1ccc2cc(C(C)C(C)(O)C(C)=O)ccc2c1 (centres unmarked) [3-hydroxy-3-methyl-4-(6'-methoxy-2'-naphthyl)-pentan-2-one]
Oestrogenicity, Allan-Doisy test (oestrogenicity [2]; 100 mg/kg sub.cut.): Active | Anti-inflammatory, rat carrageenan (Rat Paw Carrageenin; 50 and 100 mg/kg orally): Active

Structure (SMILES): COc1ccc2cc(C(C)C(C)=O)ccc2c1 (centres unmarked) [3-(6'-methoxy-2'-naphthyl)-butan-2-one, 3-(6'-methoxy-2'-napthyl)-butan-2-one]
Oestrogenicity, Allan-Doisy test (oestrogenicity [2]; 50 mg/kg sub.cut.): Inactive | Oestrogenicity, Allan-Doisy test (oestrogenicity [1]; 600 mg/kg orally): Inactive | Anti-inflammatory, rat carrageenan (Rat Paw Carrageenin; 100 mg/kg orally): Active

Structure (SMILES): CC(=O)Oc1ccccc1C(=O)O [ASPIRIN, acetylsalicylic acid, reference compound]
ED50 [6]: ~60 mg/kg

Second part, led by results:

Oestrogenicity, Allan-Doisy test (oestrogenicity [1]; 200 mg/kg orally): Inactive | Oestrogenicity, Allan-Doisy test (oestrogenicity [1]; 300 mg/kg orally): Active
Structure (SMILES): COc1ccc2cc(C(C)CC(C)=O)ccc2c1 (centres unmarked) [4-(6'-methoxy-2'-naphthyl)-pentan-2-one]
Anti-inflammatory, rat carrageenan (Rat Paw Carrageenin; 50 mg/kg orally): Slightly Active | Anti-inflammatory, rat carrageenan (Rat Paw Carrageenin; 100 mg/kg orally, 1 hr. after dosing): Active | Anti-inflammatory, rat carrageenan (Rat Paw Carrageenin; 300 mg/kg orally): Active

Oestrogenicity, Allan-Doisy test (oestrogenicity [2]; 100 mg/kg sub.cut.): Inactive
Structure (SMILES): COc1ccc2cc(/C(C)=C/C(C)=O)ccc2c1 [trans-4-(6'-methoxy-2'-naphthyl)-pent-3-ene-2-one]
Anti-inflammatory, rat carrageenan (Rat Paw Carrageenin; 100 mg/kg orally): Active

Oestrogenicity, Allan-Doisy test (oestrogenicity [1]; 300 mg/kg orally): Inactive
Structure (SMILES): COc1ccc2cc(C=CC(C)=O)ccc2c1 [4-(6-Methoxy-2-naphthyl)-3-buten-2-one]
Anti-inflammatory, rat carrageenan (Rat Paw Carrageenin; 300 mg/kg orally): Active
